Results on one molecule are retold here after US20040115289A1, “Cosmetic or medicinal composition containing sesquiterpene lactone or the like for treating hair -growth related disorders, and preparation method” (priority 2000, published 2004).

For assay [1], the system named is hairs of C57/B16 mouse. Briefly: Tests on the C57/B16 mouse: hair growth after topical application. Type of assay: in vivo. To be noted: section on the C57/B16 mouse; 1% solution in the same excipient as the Arnica montana extract. How it is done: Female mice aged 5 weeks, all identical, are used. The mice are […] on the back, so as to render the hairs unnoticeable.
0.2 ml of one of each product in the same solvent as for the test on the rabbits and at the same concentration is deposited on the backs of the mice.
A test is thus carried out by comparison between different mice, in contrast to the test on the rabbit, where the same animal represents its own control.
The product is deposited on the back, without using gauze, once daily for 5 days in a row. […] They become visible on the second day of treatment to reach approximately 1 mm from the third day, whereas the hairs begin to grow on the control mice only from the third week after the beginning of the treatment.
(§1) A solution comprising 1% of pure commercial parthenolide (Aldrich, ref. 38,428-3) and a solution comprising 1% of pure commercial cnicin (Extrasynthese, ref. 8725) are prepared in the same excipient as the Arnica montana extract and are subjected to the test on the rabbit.

In assay [2] the test system is hairs in the telogenic phase. Put plainly: Test on the rabbit: hair growth after topical application. The format is in vivo. Particulars: 1% solution in the same excipient as the Arnica montana extract. As to the method:
Male rabbits aged at least 12 weeks and identical in age, in order for the hairs of these animals to be in the telogenic phase, which can be confirmed by shearing the animals, are used.
The test products are dissolved in pure ethanol in the proportion of a concentration of 25% (w/v). This solution is then diluted 1/10 with sweet almond oil. A concentration of active product of 2.5% is then obtained.
0.2 ml of these solutions are deposited on a gauze applied to the skin and a control, obtained by preparing the same solvent as that which was used to dissolve the active principles, is also deposited. The products and the control are left in contact with the skin for 15 minutes and then the gauze is removed. The treatment is carried out for 2 days at the rate of three applications per day at intervals of four hours.
The difference between the mean time taken by the hairs to grow on the treated parts and the control parts is subsequently evaluated.
as §1

For `C=C1C(=O)O[C@@H]2/C=C(\CO)CC/C=C(\C)C[C@H](OC(=O)C(=C)[C@@H](O)CO)[C@@H]12` [cnicin], the “growth of the hairs compared with the 2.5% Arnica extract” value in assay [1] is reported as “approximately two times worse”. For the same molecule, the “growth of the hairs compared with the Arnica extract” value in assay [2] is on record as “approximately two times worse”.
